Experimental data as given in patent US11938122B2, “5-[[4-[2-[5-(1-hydroxyethyl)pyridin-2-yl]ethoxy]phenyl]methyl]-1,3- thiazolidine-2,4-dione for treating nonalcoholic fatty liver disease” (Minoryx Therapeutics S.L., priority 2016, dated 2024).
Where two headings read alike, the source gives them in different places.

Columns and labels:
[1] = system: diabetic preclinical models; details: compared with pioglitazone, literature; cited from earlier work
bladder urothelium = assay: Bladder epithelium hyperplasia in rat tissue; type: in vivo; details: treated rats; pioglitazone 14.5 and 145 mg/Kg/day, MIN-102 25, 100 and 150 mg/Kg/day
CYP3A4 = assay: CYP induction in cryopreserved human hepatocytes; type: in vitro ADME; details: 10 μM, similar assay
CYP2B6 = assay: CYP induction in cryopreserved human hepatocytes; type: in vitro ADME; details: 50 μM, similar assay
2C8 = biological target: T1, 2C8 (Homo sapiens, UniProt P10632); details: Sahi et al.; cited from earlier work
T1 sequence (P10632 1-490): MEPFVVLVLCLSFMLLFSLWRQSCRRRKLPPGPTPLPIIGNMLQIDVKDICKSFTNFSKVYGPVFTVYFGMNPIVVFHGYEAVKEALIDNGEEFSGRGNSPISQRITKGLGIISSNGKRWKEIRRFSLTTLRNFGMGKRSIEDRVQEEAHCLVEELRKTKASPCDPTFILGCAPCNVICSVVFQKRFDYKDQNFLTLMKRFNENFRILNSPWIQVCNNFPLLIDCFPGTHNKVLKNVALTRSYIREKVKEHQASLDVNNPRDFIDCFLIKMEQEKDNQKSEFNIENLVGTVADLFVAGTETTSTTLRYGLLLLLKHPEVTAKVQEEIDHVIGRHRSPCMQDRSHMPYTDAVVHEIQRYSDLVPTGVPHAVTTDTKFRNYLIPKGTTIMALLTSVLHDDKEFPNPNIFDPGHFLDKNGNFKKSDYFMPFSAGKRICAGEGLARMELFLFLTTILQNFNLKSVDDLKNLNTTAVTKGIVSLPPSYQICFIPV

[2] = cited from earlier work; for AUC0-∞ mean: healthy subjects, single oral dose 45 mg
[3] = Eckland et al., Christensen et al.

CC(O)c1ccc(CCOc2ccc(CC3SC(=O)NC3=O)cc2)nc1 (stereo not drawn) [(1), 5-[[4-[2-[5-(1-hydroxyethyl)pyridin-2-yl]ethoxy]phenyl]methyl]-1,3-thiazolidine-2,4-dione]
pharmacological activity [1]: less active than pioglitazone

CC(=O)c1ccc(CCOc2ccc(CC3SC(=O)NC3=O)cc2)nc1 (stereo not drawn) [M-III, reference compound]
pharmacological activity [1]: less active than pioglitazone

CCc1ccc(CCOc2ccc(CC3SC(=O)NC3=O)cc2)nc1 (stereo not drawn) [pioglitazone]
bladder epithelium hyperplasia (bladder urothelium): only observed in the pioglitazone group
induction in CYP3A4 (CYP3A4): 4.79 fold
induction in CYPB6 (CYP2B6): 2.35 fold
IC50 (2C8): 9.38 µM
Ki (2C8): 1.69 µM
range in exposure (AUC) [2, 3]: up to 10 fold
variability (CV %) in clearance [2, 3]: 40%-50%
AUC0-∞ mean ([2]; study a): 13854 ng·h/mL
AUC0-∞ mean ([2]; study b): 14458 ng·h/mL
AUC0-∞ mean ([2]; study c): 14071 ng·h/mL
